The values below come from patent US20080221104A1, “SOLUBLE EPOXIDE HYDROLASE INHIBITORS FOR THE TREATMENT OF RHEUMATOID ARTHRITIS” (Arete Therapeutics, Inc., priority 2006, published 2008).

For one series, the target named is T1, sEH (Homo sapiens, UniProt P34913).
T1 sequence (P34913 1-555): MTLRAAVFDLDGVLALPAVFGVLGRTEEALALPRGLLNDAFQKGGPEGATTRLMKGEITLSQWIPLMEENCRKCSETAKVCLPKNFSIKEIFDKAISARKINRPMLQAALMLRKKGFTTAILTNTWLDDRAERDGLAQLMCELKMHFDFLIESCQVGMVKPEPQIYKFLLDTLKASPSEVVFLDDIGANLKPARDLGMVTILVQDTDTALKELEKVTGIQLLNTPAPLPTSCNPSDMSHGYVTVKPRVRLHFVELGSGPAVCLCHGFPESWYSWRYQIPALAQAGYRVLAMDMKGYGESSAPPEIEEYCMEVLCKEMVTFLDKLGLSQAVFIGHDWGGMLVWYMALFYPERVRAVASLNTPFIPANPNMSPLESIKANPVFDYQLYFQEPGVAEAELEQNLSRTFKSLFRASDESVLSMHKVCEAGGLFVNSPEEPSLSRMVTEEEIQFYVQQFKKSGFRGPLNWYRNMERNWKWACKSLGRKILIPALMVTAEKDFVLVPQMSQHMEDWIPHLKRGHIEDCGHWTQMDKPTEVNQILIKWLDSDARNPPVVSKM
Put plainly: sEH inhibition, fluorescent CMNPC substrate assay (IC50 determination). The format is biochemical. As to conditions: for inhibition at 0.05 µM: tested at 50 nM. As to the method: The IC50s for each inhibitor were determined according to the following procedure:
The substrate for the reaction was:
Therefore, well A2 would refer to a well in the first row and second column of the plate.
In a black 96 well plate, all the wells are filled with 150 μL of buffer A (Buffer A: Bis/Tris HCl, 25 mM, pH 7.0 plus 0.1 mg/mL BSA). DMSO (2 microliters) was added in well A2 and A3, and then was added 2 μL of inhibitor solution in A1 and A4 through A12. […] The plate was incubated for 5 minutes in the plate reader at 30° C. During incubation, the working solution of substrate was prepared by mixing 3.68 mL of buffer A with 266 μL of 0.5 mM substrate solution. At t=0, 30 μL of working substrate solution was added and readings were started ([S]final: 5 μM). […] The velocities were used to analyze and calculate the IC50s.

Another series relates to IL-6. The experiment in a line: LPS-induced cytokine production in mice (plasma IL-6). Type of series: in vivo, mice (C57-B6). From the text: Mouse Model of Inflammation Supporting Arthritis Model: Study of effect of Treatments on LPS-Induced Cytokine Production Mice (C57-B6 mice, ˜7-8 wks, male, Charles River Labs, 22-28 g) were quarantined and examined daily during 72 hr quarantine period. Any sign of clinical distress, disease, or injury were noted on a daily basis. […] Accepted mice were transferred to routine maintenance and housed at 5 per cage. Each mouse was identified by an ear tag. The vehicle or pharmaceutically acceptable carrier for test compounds was 20% hydroxypropyl-beta-cyclodextrin for subcutaneous and interperoneal routes (Groups 6-9). For Groups 1-5, the “Vehicle” as used in this study is 0.1% Tween 80 and 1% carboxymethylcellulose (CMC). The 0.1% Tween 80 and 1% carboxymethylcellulose (CMC) was the Vehicle used in the mice in Groups 1 and 2. The compounds were administered with pre-formulated material at a dose of 0.2 mL for 25 g mouse (8.0 mL per kg body weight). […] At the initiation of the study (T=0) animals were weighed and administered with test material or Vehicle. Five 5 mice per treatment per time point group were completed. At the first time point (T=24 hours) the animals were administered with test material or Vehicle again as above. [0.2 mL for 25 g mouse (8.0 mL per kg body weight)] [table] At the time point T=25 hour, animals were administered 2 mL/kg of an LPS solution (5 mg/mL, lipopolysaccharide from Escherichia coli 0111:B4; dissolved in sterile PBS) or vehicle by intraperitoneal route. At this time point, Group 1 mice received Vehicle only as the non-LPS control and Groups 2 through 9 mice received LPS and Vehicle (Group 2) or Test Materials. At the time point T=30 hour, mice in Groups 1 through 9 were anesthetized and exsanguinated into EDTA-treated microtainer tubes. […] The plasma samples was stored at −20° C. until testing. Plasma IL-6 was measured by Luminex cytokine multiplex measurements using beads supplied by Linco.

The test system of a further series is DBA/1 mice. The experiment in a line: Collagen induced rheumatoid arthritis (RA) mouse model. The format is in vivo, mice (DBA/1). The procedure:
Mice were immunized with collagen as follows. Collagen (Bovine Type II, 0.05M in acetic acid) was emulsified with CFA (Complete Freund's Adjuvant) by mixing one volume of CFA with an equal amount of the collagen solution. Mixing was continued until a stable, stiff emulsion resulted. To ascertain the desired stability of the emulsion, 1 drop of emulsion was added into a water-filled beaker. The emulsion was considered stable if it remained in the water as a solid. For the collagen IP boost on day 21, the Bovine Type II collagen (Condrex, Seattle, Wash.) was thawed at 4° C. overnight and then mixed 1:1 with the PBS supplied. 200 μL was injected IP into each mouse. Four groups of 10 mice (40 total), aged 7-8 weeks were acclimated a minimum of 5 days prior to start of the study. Animals were housed 5 per cage in microisolators in a 12:12 light dark cycle (all work was done in a BioBubble Hood™). Standard maintenance mouse chow diet (Harlan Teklad 8640) was supplied. Water and food were given ad libitum. High CIA-susceptible DBA/1 mice were utilized which generally develop arthritis 3-5 weeks after immunization with Bovine type TI collagen. Fully developed arthritis, including red and swollen paws, was to be observed 3-5 days after the onset. […] Time of dosing was approximately the same each day following through the end of the study. The mice groups were fed as follows through the duration of the experiment: Group 1) Chow (Referred to as “Vehicle” in FIG. 1). Group 2) Chow (Positive Control-Dexamethasone (DEXA))-Dosed as appropriate. […] The dosing solutions were made on a twice weekly basis and stored at 4° C. between dosing. Measurements were taken twice weekly from boost and included: body weight measurement and Arthritic Score on a scale of 0 to 4. Arthritic score 0-4 (0=normal; 1=1-2 digit swollen and mildly red; 2=redness and swelling in mid-foot or ankle; 3=>3 paws and ankle joints swollen and very red); 4=all joints swollen and animal is not using the paw. At onset of arthritis paw measurements were taken with calipers. A baseline of caliper measurements was taken when all visual assessments were zero. Measurements were taken with an electronic caliper that entered measurements directly to an excel spreadsheet. The study was terminated on Day 42 from initial collagen injection. Cardiac blood was taken from each mouse and plasma prepared in EDTA within 15 min of collection. Plasma was frozen at −20° C. for future analysis of cytokines and eicosatrienoic acids. All left hind paws were removed and stored in formalin for future histology.

Series [1] is described as follows: Pharmacokinetic study in mice. Type of series: in vivo. The conditions noted are these: mouse plasma; for MRT: read-out: mean resident time (MRT). The procedure:
All animals were weighed prior to dose administration. […].
Blood (˜0.5 mL) was collected by cardiac puncture at sacrifice and transferred into vacutainer tubes containing sodium heparin at the time points outlined (See FIG. 3). After collection, the blood samples were centrifuged at approximately 1000×g at 2-8° C. for approximately 15 minutes. Each plasma specimen was collected, aliquoted into 2 microcentrifuge tubes, and stored at about −20° C. until analysis by LC/MS (liquid chromatography/mass spectrometry).
The quantitation method for pharmacokinetics is summarized as follows:
To prepare calibration standards for quantitation, the working standard was diluted 1 in 100 into rat plasma to 5 μg/mL (5 μL+495 μL), then diluted further with the same medium by 3-fold serial dilution. A total of seven dilutions were performed yielding eight calibration standards ranging from 2.29 to 5000 ng/mL. Calibration standards 3, 5 and 7 were used as the low, mid and high QC samples, respectively.
Calibration standards, QC samples and study samples were prepared for HPLC injection by precipitating plasma (25 μL) with 3× volumes (75 μL) of ice cold Internal Standard Solution. Following centrifugation at 6100 g for 30 minutes, 40 μL of each supernatant was transferred to a deep-well microplate and diluted with 200 μL of 0.2% formic acid in water.

Setting [2] is: 50 mg/kg PO once a day (QD), Day 20 to Day 27.
The mark [3] stands for this setting: 50 mg/kg PO twice a day (BID), Day 28 to Day 42.

Consider `O=C(Nc1ccc(C(F)(F)F)cc1)Nc1cccc(C(=O)N2CCOCC2)c1` [Compound 1, 1-[3-(morpholine-4-carbonyl)-phenyl]-3-(4-trifluoromethyl-phenyl)-urea], for which, at sEH (read-out: IC50 against sEH), the IC50 stood at 9 nM. Moreover, the inhibition at 0.05 µM against sEH is 82%. Moreover, the “inhibition of IL-6 release in response to LPS” value (“inhibition of IL-6 release” below) with IL-6 (administered SC, 50 mg/kg) worked out at 94%. Moreover, the “inhibition of IL-6 release” value in the series on IL-6 (given orally, 50 mg/kg) was found to be 55%. Further, in the series with DBA/1 mice (setting [2]), the “arthritis score vs Vehicle” value was “no significant difference from Vehicle”. Besides, the “arthritis score vs Vehicle” value with DBA/1 mice (setting [3]) is recorded as “significantly decreased the arthritic score”. Besides, in series [1], the Cmax turned out to be 9920 ng/mL; the “area under the curve (AUC), fold higher than COMPOUND #2” value is listed as “over 20 fold”; the MRT is 5.6 h.

Take `CC(=O)N1CCC(NC(=O)NC23CC4CC(CC(C4)C2)C3)CC1` [Compound 2, 1-(1-acetylpiperidn-4-yl)-3-(adamant-1-yl) urea]: the “inhibition of IL-6 release” value in the series on IL-6 (administered SC, 50 mg/kg) amounted to 51%; in the series with IL-6 (given orally, 50 mg/kg), 51%. Moreover, the “arthritis score vs Vehicle” value in the series on DBA/1 mice (setting [2]) and with DBA/1 mice (setting [3]) was “not significantly different from Vehicle treated animals” each time. The Cmax in series [1] is 6490 ng/mL. Besides, the MRT in series [1] came to 1.3 h.

For `CS(=O)(=O)N1CCC(NC(=O)NC23CC4CC(CC(C4)C2)C3)CC1` [Compound 5, 1-[1-(methylsulfonyl)piperidin-4-yl]-3-(adamant-1-yl) urea], the inhibition at 0.05 µM against sEH was 94%.

For the compound `Fc1ccc(-c2nc3n(c2-c2ccncc2)CCS3)cc1` [SKF86002, reference compound], the “inhibition of IL-6 release” value in the series on IL-6 (PO, 100 mg/kg, relative to the vehicle control) amounted to 66%.
